Laboratory results reported in PubChem BioAssay (NCI).
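In this assay, cells in 96-well plates receive the compound at five concentrations for 48 hours. Endpoints are linearly interpolated between the surrounding concentrations. GI50 is the concentration that inhibits growth by half. TGI marks complete inhibition of growth.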

Assays:
Assay in all cases: DTP human tumour cell line panel, 48 h
786-0 renal = system: 786-0 renal
A498 renal = system: A498 renal
A549 NSCLC = system: A549 NSCLC
ACHN renal = system: ACHN renal
BT-549 breast = system: BT-549 breast
CAKI-1 renal = system: CAKI-1 renal
CCRF-CEM leukemia = system: CCRF-CEM leukemia
COLO 205 colon = system: COLO 205 colon
DU-145 prostate = system: DU-145 prostate
EKVX NSCLC = system: EKVX NSCLC
HCC-2998 colon = system: HCC-2998 colon
HCT-116 colon = system: HCT-116 colon
HCT-15 colon = system: HCT-15 colon
HL-60(TB) leukemia = system: HL-60(TB) leukemia
HOP-62 NSCLC = system: HOP-62 NSCLC
HOP-92 NSCLC = system: HOP-92 NSCLC
HS 578T breast = system: HS 578T breast
HT29 colon = system: HT29 colon
IGROV1 ovarian = system: IGROV1 ovarian
K-562 leukemia = system: K-562 leukemia
KM12 colon = system: KM12 colon
LOX IMVI melanoma = system: LOX IMVI melanoma
M14 melanoma = system: M14 melanoma
MALME-3M melanoma = system: MALME-3M melanoma
MCF7 breast = system: MCF7 breast
MDA-MB-231 breast = system: MDA-MB-231 breast
MDA-MB-435 = system: MDA-MB-435
MOLT-4 leukemia = system: MOLT-4 leukemia
NCI-H226 lung = system: NCI-H226 lung

COc1ccc2[nH]c(-c3ccccc3)cc2c1
GI50 (786-0 renal): > 100 µM | TGI (786-0 renal): > 100 µM | GI50 (A498 renal): 20.8 µM | TGI (A498 renal): > 100 µM | GI50 (A549 NSCLC): > 100 µM | TGI (A549 NSCLC): > 100 µM | GI50 (ACHN renal): > 100 µM | TGI (ACHN renal): > 100 µM | GI50 (BT-549 breast): > 100 µM | TGI (BT-549 breast): > 100 µM | GI50 (CAKI-1 renal): > 100 µM | TGI (CAKI-1 renal): > 100 µM | GI50 (CCRF-CEM leukemia): 68.5 µM | TGI (CCRF-CEM leukemia): > 100 µM | GI50 (COLO 205 colon): > 100 µM | TGI (COLO 205 colon): > 100 µM | GI50 (DU-145 prostate): > 100 µM | TGI (DU-145 prostate): > 100 µM | GI50 (EKVX NSCLC): 59 µM | TGI (EKVX NSCLC): > 100 µM | GI50 (HCC-2998 colon): > 100 µM | TGI (HCC-2998 colon): > 100 µM | GI50 (HCT-116 colon): > 100 µM | TGI (HCT-116 colon): > 100 µM | GI50 (HCT-15 colon): > 100 µM | TGI (HCT-15 colon): > 100 µM | GI50 (HL-60(TB) leukemia): > 100 µM | TGI (HL-60(TB) leukemia): > 100 µM | GI50 (HOP-62 NSCLC): > 100 µM | TGI (HOP-62 NSCLC): > 100 µM | GI50 (HOP-92 NSCLC): 70 µM | TGI (HOP-92 NSCLC): > 100 µM | GI50 (HS 578T breast): > 100 µM | TGI (HS 578T breast): > 100 µM | GI50 (HT29 colon): > 100 µM | TGI (HT29 colon): > 100 µM | GI50 (IGROV1 ovarian): > 100 µM | TGI (IGROV1 ovarian): > 100 µM | GI50 (K-562 leukemia): 86.8 µM | TGI (K-562 leukemia): > 100 µM | GI50 (KM12 colon): 73.8 µM | TGI (KM12 colon): > 100 µM | GI50 (LOX IMVI melanoma): > 100 µM | TGI (LOX IMVI melanoma): > 100 µM | GI50 (M14 melanoma): > 100 µM | TGI (M14 melanoma): > 100 µM | GI50 (MALME-3M melanoma): > 100 µM | TGI (MALME-3M melanoma): > 100 µM | GI50 (MCF7 breast): 86.6 µM | TGI (MCF7 breast): > 100 µM | GI50 (MDA-MB-231 breast): 61.8 µM | TGI (MDA-MB-231 breast): > 100 µM | GI50 (MDA-MB-435): > 100 µM | TGI (MDA-MB-435): > 100 µM | GI50 (MOLT-4 leukemia): > 100 µM | TGI (MOLT-4 leukemia): > 100 µM | GI50 (NCI-H226 lung): > 100 µM
